Test results published in PubChem BioAssay AID330 (DTP/NCI, 2004).
Where “and” joins values, the source holds several entries; their conditions need not be identical. Identical values can stand only once. Toxic doses and inconclusive results are not listed. How the source made its calls: active means survival T/C of 150% or more; inactive means T/C below 125% in these data.

Test system: P388 leukemia ip, CD2F1 mice, survival T/C
Assay: NCI In Vivo Anticancer Drug Screen. Data for tumor model P388 Leukemia (intraperitoneal) in CD2F1 (CDF1) mice
Conditions: endpoint: median survival time, higher = longer survival
Outline: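 Mice carrying the transplanted tumor received test compound or vehicle. Survival was recorded in each group, and the value is the treated-group measurement divided by that of the vehicle-treated control group.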

[1] = dose: 50.0 mg/kg/injection, schedule: Q01DX009 (ip), vehicle: Klucel (hydroxypropylcellulose) (HPC)
[2] = dose: 100.0 mg/kg/injection, schedule: Q01DX009 (ip), vehicle: Klucel (hydroxypropylcellulose) (HPC)
[3] = dose: 50.0 mg/kg/injection, schedule: Q01DX005 (ip), vehicle: saline with Tween-80
[4] = dose: 100.0 mg/kg/injection, schedule: Q01DX005 (ip), vehicle: saline with Tween-80
[5] = dose: 200.0 mg/kg/injection, schedule: Q01DX005 (ip), vehicle: saline with Tween-80
[6] = dose: 60.0 mg/kg/injection, schedule: Q01DX005 (ip), vehicle: saline with Tween-80
[7] = dose: 240.0 mg/kg/injection, schedule: Q01DX005 (ip), vehicle: saline with Tween-80
[8] = dose: 25.0 mg/kg/injection, schedule: Q01DX009 (ip), vehicle: saline with Tween-80
[9] = dose: 50.0 mg/kg/injection, schedule: Q01DX009 (ip), vehicle: saline with Tween-80
[10] = dose: 100.0 mg/kg/injection, schedule: Q01DX009 (ip), vehicle: saline with Tween-80
[11] = dose: 25.0 mg/kg/injection, schedule: Q01DX009 (ip), vehicle: Klucel (hydroxypropylcellulose) (HPC)

Measured: T/C

CC1CCOn2c1nc1ccccc1c2=O (centres undefined)
inactive: [1] 97 % of control | [2] 102 % of control | dose: 200.0 mg/kg/injection, schedule: Q01DX009 (ip), vehicle: Klucel (hydroxypropylcellulose) (HPC) 113 % of control

O=c1[nH]nnc2ccccc12
inactive: [1] 105 % of control | [2] 114 % of control

CCC(=O)NC(Cc1ccccc1F)C(=O)O (centres undefined)
inactive: dose: 12.5 mg/kg/injection, schedule: Q01DX009 (ip), vehicle: saline 101 % of control | dose: 25.0 mg/kg/injection, schedule: Q01DX009 (ip), vehicle: saline 88 % of control | dose: 50.0 mg/kg/injection, schedule: Q01DX009 (ip), vehicle: saline 91 % of control and 93 % of control | dose: 200.0 mg/kg/injection, schedule: Q01DX009 (ip), vehicle: saline 95 % of control

COc1cc2nc3occc3c(OC)c2cc1OCC(O)C(C)(C)O (centres undefined)
inactive: dose: 12.5 mg/kg/injection, schedule: Q01DX005 (ip), vehicle: distilled water + Tween-80 91 % of control | dose: 25.0 mg/kg/injection, schedule: Q01DX005 (ip), vehicle: distilled water + Tween-80 98 % of control

CC(C)(CO)CBr
inactive: dose: 100.0 mg/kg/injection, schedule: Q01DX009 (ip), vehicle: saline sonified 100 % of control | dose: 200.0 mg/kg/injection, schedule: Q01DX009 (ip), vehicle: saline sonified 95 % of control | dose: 400.0 mg/kg/injection, schedule: Q01DX009 (ip), vehicle: saline sonified 95 % of control

CCc1cccc(C2(C)C(=O)c3ccccc3C2=O)c1
inactive: dose: 100.0 mg/kg/injection, schedule: Q04DX002 (ip), vehicle: saline 105 % of control | dose: 200.0 mg/kg/injection, schedule: Q04DX002 (ip), vehicle: saline 100 % of control | dose: 400.0 mg/kg/injection, schedule: Q04DX002 (ip), vehicle: saline 102 % of control

C=CCOc1cc2c(cc1C(C)c1ccc(OCCC)cc1)OCO2 (centres undefined)
inactive: [3] 97 % of control | [4] 102 % of control | [5] 107 % of control

O=C(O)CC(=O)O.[Cu+2].[NH-]C1CCCC2CCC[N-]C12 (centres undefined)
inactive: dose: 5.0 mg/kg/injection, schedule: Q04DX002 (ip), vehicle: saline 93 % of control | dose: 10.0 mg/kg/injection, schedule: Q04DX002 (ip), vehicle: saline 108 % of control

CC(C)(C)c1cc(C(C)(C)C)c2ssnc1-2
inactive: [6] 89 % of control | dose: 120.0 mg/kg/injection, schedule: Q01DX005 (ip), vehicle: saline with Tween-80 91 % of control | [7] 91 % of control

Cc1ccc(C)c(C2NC(=O)c3ccccc3N2)c1 (centres undefined)
inactive: [8] 104 % of control | [9] 104 % of control | [10] 101 % of control | dose: 200.0 mg/kg/injection, schedule: Q01DX009 (ip), vehicle: saline with Tween-80 112 % of control

CN(C)c1cccc2c(S(=O)(=O)NCCCCCCCCCCCCNS(=O)(=O)c3cccc4c(N(C)C)cccc34)cccc12
inactive: dose: 15.0 mg/kg/injection, schedule: Q01DX005 (ip), vehicle: saline with Tween-80 96 % of control | dose: 30.0 mg/kg/injection, schedule: Q01DX005 (ip), vehicle: saline with Tween-80 92 % of control | [6] 87 % of control | [7] 88 % of control

CS/N=C(\c1ccccc1)N(C)C
inactive: dose: 7.5 mg/kg/injection, schedule: Q01DX005 (ip), vehicle: Klucel (hydroxypropylcellulose) (HPC) 97 % of control | dose: 15.0 mg/kg/injection, schedule: Q01DX005 (ip), vehicle: Klucel (hydroxypropylcellulose) (HPC) 100 % of control

COc1cc(C/C(=C\c2ccc(OC)c(OCc3ccccc3)c2)[N+](=O)[O-])ccc1OCc1ccccc1
inactive: dose: 9.38 mg/kg/injection, schedule: Q04DX003 (ip), vehicle: Klucel (hydroxypropylcellulose) (HPC) 100 % of control | dose: 18.75 mg/kg/injection, schedule: Q04DX003 (ip), vehicle: Klucel (hydroxypropylcellulose) (HPC) 100 % of control | dose: 37.5 mg/kg/injection, schedule: Q04DX003 (ip), vehicle: Klucel (hydroxypropylcellulose) (HPC) 100 % of control

Cn1c(=O)c2[nH]c(Cc3ccsc3)nc2n(C)c1=O
inactive: [11] 110 % of control | [1] 93 % of control | [2] 99 % of control and 95 % of control

C=C(Cl)CNc1ccccc1C(=O)O
inactive: dose: 25.0 mg/kg/injection, schedule: Q04DX003 (ip), vehicle: Klucel (hydroxypropylcellulose) (HPC) 109 % of control and 97 % of control | dose: 50.0 mg/kg/injection, schedule: Q04DX003 (ip), vehicle: Klucel (hydroxypropylcellulose) (HPC) 109 % of control and 110 % of control | dose: 100.0 mg/kg/injection, schedule: Q04DX003 (ip), vehicle: Klucel (hydroxypropylcellulose) (HPC) 103 % of control and 95 % of control | dose: 200.0 mg/kg/injection, schedule: Q04DX003 (ip), vehicle: Klucel (hydroxypropylcellulose) (HPC) 94 % of control

N=c1c2c(ncn1Cc1ccccc1)CCN(Cc1ccccc1)C2
inactive: dose: 12.5 mg/kg/injection, schedule: Q01DX009 (ip), vehicle: saline with Tween-80 101 % of control | [8] 100 % of control and 114 % of control | [9] 104 % of control | [10] 112 % of control

C1=[N+]2N=C(SCc3ccccc3)S[B-]2([C+]2CCCCC2)Oc2ccccc21 (centres undefined)
inactive: [3] 91 % of control | [4] 94 % of control | [5] 91 % of control

CCCC[NH-].CCCC[NH-].[I][Pt+2][I]
inactive: dose: 0.78 mg/kg/injection, schedule: Q01DX009 (ip), vehicle: other 103 % of control and 120 % of control

Clc1cccc2c(SCCCCCCSc3c4ccccc4nc4c(Cl)cccc34)c3ccccc3nc12
inactive: dose: 60.0 mg/kg/injection, schedule: Q01DX005 (ip), vehicle: Klucel (hydroxypropylcellulose) (HPC) 92 % of control | dose: 120.0 mg/kg/injection, schedule: Q01DX005 (ip), vehicle: Klucel (hydroxypropylcellulose) (HPC) 88 % of control

CSC(=Nc1nc2ccc([N+](=O)[O-])cc2s1)SC
inactive: dose: 6.25 mg/kg/injection, schedule: Q01DX009 (ip), vehicle: Klucel (hydroxypropylcellulose) (HPC) 101 % of control | dose: 12.5 mg/kg/injection, schedule: Q01DX009 (ip), vehicle: Klucel (hydroxypropylcellulose) (HPC) 103 % of control | [11] 103 % of control

NC1[N-]C(C2CCCC[N-]2)CC2CCCCC21.O=[N+]([O-])O.O=[N+]([O-])O.[Cu+2] (centres undefined)
inactive: dose: 6.25 mg/kg/injection, schedule: Q04DX002 (ip), vehicle: suspension in saline 103 % of control | dose: 12.5 mg/kg/injection, schedule: Q04DX002 (ip), vehicle: suspension in saline 111 % of control

COC(=O)c1c(C(=O)OC)c2ccc3ccccc3n2c1-c1ccccc1
inactive: dose: 12.5 mg/kg/injection, schedule: Q01DX001 (ip), vehicle: saline with Tween-80 115 % of control | dose: 25.0 mg/kg/injection, schedule: Q01DX001 (ip), vehicle: saline with Tween-80 94 % of control | dose: 50.0 mg/kg/injection, schedule: Q01DX001 (ip), vehicle: saline with Tween-80 94 % of control | dose: 200.0 mg/kg/injection, schedule: Q01DX001 (ip), vehicle: saline with Tween-80 93 % of control | dose: 400.0 mg/kg/injection, schedule: Q01DX001 (ip), vehicle: saline with Tween-80 100 % of control

CC[C@@]1(O)C[C@H](OC2CC(N(C)C)C(O)C(C)O2)c2c(O)c3c(c(O)c2[C@H]1OC1CC(N(C)C)C(O)C(C)O1)C(=O)c1cccc(O)c1C3=O (some centres undefined)
inactive: dose: 0.03 mg/kg/injection, schedule: Q01DX009 (ip), vehicle: other 118 % of control | dose: 0.03 mg/kg/injection, schedule: Q04DX003 (ip), vehicle: other 112 % of control | dose: 0.06 mg/kg/injection, schedule: Q04DX003 (ip), vehicle: other 114 % of control | dose: 0.13 mg/kg/injection, schedule: Q04DX003 (ip), vehicle: other 124 % of control | dose: 0.25 mg/kg/injection, schedule: Q04DX003 (ip), vehicle: other 121 % of control | dose: 0.5 mg/kg/injection, schedule: Q04DX003 (ip), vehicle: other 93 % of control

O=C(C(Br)C(Br)c1ccccc1)N1CCOCC1 (centres undefined)
inactive: [10] 118 % of control | dose: 178.0 mg/kg/injection, schedule: Q01DX009 (ip), vehicle: saline with Tween-80 113 % of control | dose: 266.0 mg/kg/injection, schedule: Q01DX009 (ip), vehicle: saline with Tween-80 119 % of control | dose: 400.0 mg/kg/injection, schedule: Q01DX009 (ip), vehicle: saline with Tween-80 121 % of control

CCCCN1C=C(C)N(CCCC)CC1
inactive: dose: 12.5 mg/kg/injection, schedule: Q01DX005 (ip), vehicle: saline with Tween-80 109 % of control | dose: 25.0 mg/kg/injection, schedule: Q01DX005 (ip), vehicle: saline with Tween-80 114 % of control | [3] 121 % of control and 123 % of control | [4] 116 % of control
